The values below are quoted from earlier work in paper PMC11904481 (ESMO Open, 2025).

This data set concerns patients. The note with it: cited from earlier work; for diarrhea / nausea: patients treated with oral ERK inhibitor.
Setting [1] is: ocular TEAE, oral ERK inhibitor.

The structures appear in SMILES notation. Several values for one entry are separate records, joined by “and”; a condition that tells them apart may be missing. Equal values may be shown once. A value given as a limit tells only on which side of the number the result lay.

Consider `Cc1cnc(NC2CCOCC2)nc1-n1cnc(C(=O)N[C@H](CN)c2cc(F)cc(Cl)c2)c1` [ASN007], for which the diarrhea is given as 30% and the nausea was 30%.

As to `Cn1nccc1Nc1nccc(-c2ccn([C@H](CO)c3ccc(Cl)c(F)c3)c(=O)c2)n1` [GDC-0994, (S)-1-(1-(4-chloro-3-fluorophenyl)-2-hydroxyethyl)-4-(2-((1-methyl-1H-pyrazol-5-yl)amino)pyrimidin-4-yl)pyridin-2(1H)-one], the diarrhea is reported as 49% and the nausea was 32%. Besides, the blurred vision under setting [1] is listed as 13%.

As for `Cn1nccc1Nc1nccc(-c2cc3c(s2)C(C)(C)N(CCN2CCOCC2)C3=O)n1` [LY3214996], under setting [1], the blurred vision is given as 15%.

For the molecule `CS[C@@]1(C(=O)Nc2ccc3[nH]nc(-c4ccc(OC(C)C)nc4)c3c2)CCN(CC(=O)N2CC=C(c3ccc(-c4ncn(C)n4)cc3)CC2)C1` [MK-8353], the diarrhea was > 40% and 44%; the nausea is given as 28%. The blurred vision under setting [1] is on record as 8%. Moreover, under “oral ERK inhibitor”, the oropharyngeal pain was 8%.

For the molecule `CC(C)Nc1cc(-c2c[nH]c(C(=O)N[C@H](CO)c3cccc(Cl)c3)c2)c(Cl)cn1` [ulixertinib], the diarrhea is > 40% and 48%; the nausea is reported as 42%. Besides, under setting [1], the retinopathy is on record as 14%. Further, under “phase I clinical trial, oral”, the “patients with dose reductions due to toxicity” value is listed as 32%.
